The values below come from paper PMC10914734 (Signal Transduction and Targeted Therapy, 2024).

One series relates to C57BL/6 mice. Kind of series: In vivo acute toxicity study in mice. Particulars: oral, 1000 mg/kg/day and 2000 mg/kg/day; for Acute toxicity study, organs and tissues damage: at the end of observation; for Acute toxicity study, overall result: twice daily, observed 12 days. The method, then: C57BL/6 mice (aged 6–8 weeks, 16–25 g) consisting of half male and half female were used to assess toxicity of compounds 14a and 14b in vivo. Compounds, vehicle, dosage, and administration schemes are shown in Supplementary Table S6. In short, mice were treated with compounds 14a and 14b at the indicated doses by oral gavage and the mice were clinically observed for 12 days after administration, including body weights, food consumption, and general status. At the end of the studies, the mice were anesthetized by Zoletil 50, and the organ and tissue samples were observed by naked eyes.

In series [1] the test system is LPS-induced expression of proinflammatory cytokines (IL-1β, IL-6) and chemokines (CCL3, CXCL10) in Raw 264.7 mouse macrophages. Description: Anti-inflammatory assay in LPS-stimulated Raw 264.7 cells (RT-qPCR). To be noted: LPS 200 ng/mL 6 h, dose-dependent. Format: cell-based. The method, then: Mouse macrophage Raw 264.7 cells were incubated with compounds 14a or 14b at different doses for 2 h. Then, the cells were stimulated with LPS (200 ng/mL) for 6 h, followed by RT-qPCR analysis.
RNA isolation, cDNA synthesis, and RT-qPCR. Total RNA was isolated from cells using RNA extraction reagent (Vazyme, R401-01). cDNA was synthesized using the HiScript IIQ RT SuperMix (Vazyme, R223-01), according to manufacturer’s instructions. RT-qPCR was performed using ChamQ SYBR qPCR Master Mix (Vazyme, Q331-02) in a CFX96TM Real-Time PCR Detection System (Bio-Rad, Shanghai, China). The profile of thermal cycling consisted of initial denaturation at 95 °C for 30 s, 40 cycles at 95 °C for 5 s and 60 °C for 30 s. All primer sequences used in this study are listed in Supplementary Table S5.

A further series has as its system HCoV-OC43. Description: Protective effect against HCoV-OC43 infection in newborn mice. Format: in vivo. On the procedure:
We also further assessed the in vivo antiviral activity of compound 14b against HCoV-OC43 infection in a mouse model. In the HCoV-OC43 infection mouse model, we treated newborn mice with 14b at a dose of 5 mg/kg by intraperitoneal injection 24 h after challenge with HCoV-OC43 at 100 TCID50.
Protective effect of 14b against HCoV-OC43 in vivo was assessed as previously reported.[45] All newborn mice were challenged with HCoV-OC43 (100 TCID50) by intranasal administration. For mice in the 14b-treated group, 14b (5 mg/kg) in a proper solution (1% dimethyl sulfoxide, 9% polyethylene glycol 300, and 90% aqueous solution containing 28% (w/v) hydroxypropyl β-cyclodextrin, volume ratio) was given by intraperitoneal injection. Mice in the viral control group were treated with PBS. Body weight and survival rate of these mice were then observed up to the 15th day post-infection.

The structures appear in SMILES notation.

As for `O=C(NCc1ccccc1)C(=O)[C@H](C[C@@H]1CCCNC1=O)NC(=O)[C@H](Cc1ccc(F)cc1)NC(=O)c1cc2ccccc2o1` [14a, N-((S)-1-(((S)-4-(benzylamino)-3,4-dioxo-1-((S)-2-oxopiperidin-3-yl)butan-2-yl)amino)-3-(4-fluorophenyl)-1-oxopropan-2-yl)benzofuran-2-carboxamide], in the series on C57BL/6 mice, the “Acute toxicity study, abnormalities in body weights, food mean daily consumption and general status” value is listed as “No abnormalities”; the “Acute toxicity study, mortality” value is recorded as “No mice died”; the “Acute toxicity study, organs and tissues damage” value was “No obvious organs and tissues damage”; the “Acute toxicity study, overall result” value is given as “No obvious toxicity”. In addition, the “LPS-induced expression of proinflammatory cytokines (IL-1β, IL-6) and chemokines (CCL3, CXCL10)” value in series [1] is “significantly inhibited”.
Take `O=C(NCc1ccccc1)C(=O)[C@H](C[C@@H]1CCCNC1=O)NC(=O)[C@H](CC1CCCCC1)NC(=O)c1cc2ccccc2o1` [14b, N-((S)-1-(((S)-4-(benzylamino)-3,4-dioxo-1-((S)-2-oxopiperidin-3-yl)butan-2-yl)amino)-3-cyclohexyl-1-oxopropan-2-yl)benzofuran-2-carboxamide]: in the series with C57BL/6 mice, the “Acute toxicity study, abnormalities in body weights, food mean daily consumption and general status” value was “No abnormalities”; the “Acute toxicity study, mortality” value was “No mice died”; the “Acute toxicity study, organs and tissues damage” value is “No obvious organs and tissues damage”; the “Acute toxicity study, overall result” value is “No obvious toxicity”. Moreover, the “Body weight of infected mice” value in the series with HCoV-OC43 (HCoV-OC43 100 TCID50, 5 mg/kg intraperitoneal injection) is reported as “either mildly decreased or rapidly recovered”. In the series on HCoV-OC43 (HCoV-OC43 100 TCID50, 5 mg/kg intraperitoneal injection 24 h after challenge), this compound showed a Final survival rate of 60%. Also, in series [1], the “LPS-induced expression of proinflammatory cytokines (IL-1β, IL-6) and chemokines (CCL3, CXCL10)” value is listed as “significantly inhibited”.
